The numbers were not newly measured in patent US12365644B2, “Co-crystal of ketoprofen, lysine and gabapentin, pharmaceutical compositions and their medical use” (DOMPÉ FARMACEUTICI S.P.A., priority 2020, dated 2025), which cites them from elsewhere.

For series [1] the following is noted: most common side effects.

Turning to `NCC1(CC(=O)O)CCCCC1` [Gabapentin], the “time to utmost level in plasma” value (after oral administration) was 3 to 4 h. In addition, the “attachment to plasma proteins” value (in vivo) is reported as “does not attach to plasma proteins”. For the same molecule, where the note is “renal excretion”, the excretion half-life result is listed as “roughly 6 hours”. Also, in series [1], the “side effect: ataxia” value is on record as 13%, the “side effect: dizziness” value is recorded as 18%, the “side effect: fatigue” value is recorded as 11% and the “side effect: somnolence” value was 20%.
